Assay results published in patent US20250059179A1, “Heterocyclic Compounds and Methods of Use” (AMGEN INC., priority 2021, published 2025).

Experiments:
[1] = target: His-tagged KRAS G12D protein (Homo sapiens, UniProt P01116, G12D); assay: KRAS G12D TR-FRET Assay; format: binding; conditions: biotinylated KRPep-2d substrate, 10 μM GDP;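 further: europium anti-His antibody paired with streptavidin-d2 as FRET partners, initial 30 min incubation, then peptide 1 h and detection reagents 1 h, all at room temperature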
Sequence of His-tagged KRAS G12D protein (P01116 1-188 isoform P01116-2 G12D): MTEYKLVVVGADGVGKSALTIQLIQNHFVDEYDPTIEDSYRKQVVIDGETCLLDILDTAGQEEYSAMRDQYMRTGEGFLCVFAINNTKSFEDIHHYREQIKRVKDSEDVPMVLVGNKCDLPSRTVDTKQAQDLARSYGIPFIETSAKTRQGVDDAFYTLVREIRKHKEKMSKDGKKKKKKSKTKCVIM

[2] = target: GDP-bound KRAS protein (aa 1-169), containing both G12D and C118A amino acid substitutions (Homo sapiens, UniProt P01116, C118A/G12D); assay: KRAS G12D Coupled Nucleotide Exchange Assay; format: biochemical; conditions: 2 h compound pre-incubation, SOS-mediated nucleotide exchange, cRAF AlphaScreen readout;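 further: IC50 obtained by fitting the AlphaScreen signal with a four-parameter logistic curve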
Sequence of GDP-bound KRAS protein (aa 1-169), containing both G12D and C118A amino acid substitutions (P01116 1-169 isoform P01116-2 G12D/C118A): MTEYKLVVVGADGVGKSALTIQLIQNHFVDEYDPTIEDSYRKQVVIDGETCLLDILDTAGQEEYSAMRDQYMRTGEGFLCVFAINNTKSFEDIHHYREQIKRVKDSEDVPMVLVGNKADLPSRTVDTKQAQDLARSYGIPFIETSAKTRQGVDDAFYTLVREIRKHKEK

SMILES | IC50 [1] [nM] | Avg 2 h Coupled Exchange IC50 [2] [nM] | IC50 ([2]; read-out: Avg 2 h Coupled Exchange IC50) [nM]
CN1CCC[C@H]1COc1nc(N2C3CNCC2COC3)c2cc(Cl)c(-c3cccc4sc(N)nc34)c(F)c2n1 [Example 10, 4-(4-(3-oxa-7,9-diazabicyclo[3.3.1]nonan-9-yl)-6-chloro-8-fluoro-2-(((S)-1-methylpyrrolidin-2-yl)methoxy)quinazolin-7-yl)benzo[d] thiazol-2-amine] | 14 | 10 | –
CN1C[C@H](F)C[C@H]1COc1nc(N2CCNC(=O)CC2)c2cc(Cl)c(-c3ccc(F)c4sc(N)nc34)c(F)c2n1 [Example 21, 1-(7-(2-amino-7-fluorobenzo[d]thiazol-4-yl)-6-chloro-8-fluoro-2-(((2S,4R)-4-fluoro-1-methylpyrrolidin-2-yl)methoxy)quinazolin-4-yl)-1,4-diazepan-5-one] | 97 | 67 | –
CN1C[C@H](F)C[C@H]1COc1nc(N2CCCNC(=O)C2)c2cc(Cl)c(-c3ccc(F)c4sc(N)nc34)c(F)c2n1 [Example 19, 4-(7-(2-amino-7-fluorobenzo[d]thiazol-4-yl)-6-chloro-8-fluoro-2-(((2S,4R)-4-fluoro-1-methylpyrrolidin-2-yl)methoxy)quinazolin-4-yl)-1,4-diazepan-2-one] | 85 | 62 | –
Nc1nc2c(-c3c(Cl)cc4c(N5CCNCC5)nc(N5CC(N6CC(F)C6)C5)nc4c3F)cccc2s1 [Example 90, 4-[6-chloro-8-fluoro-2-[3-(3-fluoroazetidin-1-yl)azetidin-1-yl]-4-piperazin-1-yl-quinazolin-7-yl]-1,3-benzothiazol-2-amine] | – | 1010 | –
CN(C1CN(c2nc(N3CCNCC3)c3cc(Cl)c(-c4cccc5sc(N)nc45)c(F)c3n2)C1)[C@@H]1CCOC1 [Example 89] | – | 895 | –
Nc1nc2c(-c3c(Cl)cc4c(N5CCNCC5)nc(N5CC(n6ccnc6)C5)nc4c3F)cccc2s1 [Example 116, 4-[6-chloro-8-fluoro-2-(3-imidazol-1-ylazetidin-1-yl)-4-piperazin-1-yl-quinazolin-7-yl]-1,3-benzothiazol-2-amine] | – | 3110 | –
Nc1nc2c(-c3c(Cl)cc4c(N5CCNCC5)nc(N5CC(N6CCC(O)CC6)C5)nc4c3F)cccc2s1 [Example 83, 1-[1-[7-(2-amino-1,3-benzothiazol-4-yl)-6-chloro-8-fluoro-4-piperazin-1-yl-quinazolin-2-yl]azetidin-3-yl]piperidin-4-ol] | – | 496 | –
Nc1nc2c(-c3c(Cl)cc4c(N5CCNCC5)nc(N5CC(N6CC(O)C6)C5)nc4c3F)cccc2s1 [Example 85, 1-[1-[7-(2-amino-1,3-benzothiazol-4-yl)-6-chloro-8-fluoro-4-piperazin-1-yl-quinazolin-2-yl]azetidin-3-yl]azetidin-3-ol] | – | 633 | –
CC1(O)CN(C2CN(c3nc(N4CCNCC4)c4cc(Cl)c(-c5cccc6sc(N)nc56)c(F)c4n3)C2)C1 [Example 86, 1-[1-[7-(2-amino-1,3-benzothiazol-4-yl)-6-chloro-8-fluoro-4-piperazin-1-yl-quinazolin-2-yl]azetidin-3-yl]-3-methyl-azetidin-3-ol] | – | 648 | –
CN(C)C1CCN(c2nc(N3CCNCC3)c3cc(Cl)c(-c4cccc5sc(N)nc45)c(F)c3n2)C1 (stereo not shown) [Example 94, 4-[6-chloro-8-fluoro-4-piperazin-1-yl-2-[3-(dimethylamino)pyrrolidin-1-yl]quinazolin-7-yl]-1,3-benzothiazol-2-amine] | – | 1140 | –
Nc1nc2c(-c3c(Cl)cc4c(N5CCNCC5)nc(N5CC(N6CCCCC6)C5)nc4c3F)cccc2s1 [Example 78, 4-[6-chloro-8-fluoro-4-piperazin-1-yl-2-[3-(1-piperidyl)azetidin-1-yl]quinazolin-7-yl]-1,3-benzothiazol-2-amine] | – | 280 | –
Nc1nc2c(-c3c(Cl)cc4c(N5CCNCC5)nc(N5CC6(CC(O)c7nccn76)C5)nc4c3F)cccc2s1 (stereo not shown) [Example 108, 1′-[7-(2-amino-1,3-benzothiazol-4-yl)-6-chloro-8-fluoro-4-piperazin-1-yl-quinazolin-2-yl]spiro[6,7-dihydropyrrolo[1,2-a]imidazole-5,3′-azetidine]-7-ol] | – | 1970 | –
CN1C(=O)CC2(CN(c3nc(N4CCNCC4)c4cc(Cl)c(-c5cccc6sc(N)nc56)c(F)c4n3)C2)n2ccnc21 [Example 113, 1′-[7-(2-amino-1,3-benzothiazol-4-yl)-6-chloro-8-fluoro-4-piperazin-1-yl-quinazolin-2-yl]-8-methyl-spiro[6H-imidazo[1,2-a]pyrimidine-5,3′-azetidine]-7-one] | – | 2480 | –
CN(C)C1(C)CN(c2nc(N3CCNCC3)c3cc(Cl)c(-c4cccc5sc(N)nc45)c(F)c3n2)C1 [Example 76] | – | – | 172
Nc1nc2c(-c3c(Cl)cc4c(N5CCNCC5)nc(N5CC6(CCOCC(=O)N6)C5)nc4c3F)cccc2s1 [Example 105, 2-[7-(2-amino-1,3-benzothiazol-4-yl)-6-chloro-8-fluoro-4-piperazin-1-yl-quinazolin-2-yl]-8-oxa-2,5-diazaspiro[3.6]decan-6-one] | – | 1850 | –
CON(C)C1CN(c2nc(N3CCNCC3)c3cc(Cl)c(-c4cccc5sc(N)nc45)c(F)c3n2)C1 [Example 104, 4-[6-chloro-8-fluoro-2-[3-[methoxy(methyl)amino]azetidin-1-yl]-4-piperazin-1-yl-quinazolin-7-yl]-1,3-benzothiazol-2-amine] | – | 1730 | –
CCOC(=O)c1ccn(C2CN(c3nc(N4CCNCC4)c4cc(Cl)c(-c5cccc6sc(N)nc56)c(F)c4n3)C2)n1 [Example 119, ethyl 1-[1-[7-(2-amino-1,3-benzothiazol-4-yl)-6-chloro-8-fluoro-4-piperazin-1-yl-quinazolin-2-yl]azetidin-3-yl]pyrazole-3-carboxylate] | – | 3670 | –
Nc1nc2c(-c3c(Cl)cc4c(N5CCNCC5)nc(N5CCN6CCC5C6)nc4c3F)cccc2s1 (stereo not shown) [Example 107, 4-[6-chloro-8-fluoro-4-piperazin-1-yl-2-[1,4-diazabicyclo[3.2.1]octan-4-yl]quinazolin-7-yl]-1,3-benzothiazol-2-amine] | – | 1900 | –
CNC1CCN(c2nc(N3CCNCC3)c3cc(Cl)c(-c4cccc5sc(N)nc45)c(F)c3n2)C1 (stereo not shown) [Example 97, 4-[6-chloro-8-fluoro-4-piperazin-1-yl-2-[3-(methylamino)pyrrolidin-1-yl]quinazolin-7-yl]-1,3-benzothiazol-2-amine] | – | 1270 | –
CN1CCC2CN(c3nc(N4CCNCC4)c4cc(Cl)c(-c5cccc6sc(N)nc56)c(F)c4n3)CC21 (stereo not shown) [Example 98, 4-(6-chloro-8-fluoro-2-(1-methylhexahydropyrrolo[3,4-b]pyrrol-5(1H)-yl)-4-(piperazin-1-yl)quinazolin-7-yl)benzo[d]thiazol-2-amine] | – | 1310 | –
Nc1nc2c(-c3c(Cl)cc4c(N5CCNCC5)nc(N5CCC6(CCN6)C5)nc4c3F)cccc2s1 (stereo not shown) [Example 109, 4-[6-chloro-8-fluoro-4-piperazin-1-yl-2-[1,7-diazaspiro[3.4]octan-7-yl]quinazolin-7-yl]-1,3-benzothiazol-2-amine] | – | 2170 | –
Nc1nc2c(-c3c(Cl)cc4c(N5CCNCC5)nc(N5CC(N6CCS(=O)(=O)CC6)C5)nc4c3F)cccc2s1 [Example 111, 4-[6-chloro-2-[3-(1,1-dioxo-1,4-thiazinan-4-yl)azetidin-1-yl]-8-fluoro-4-piperazin-1-yl-quinazolin-7-yl]-1,3-benzothiazol-2-amine] | – | 2300 | –
Nc1nc2c(-c3c(Cl)cc4c(N5CCNCC5)nc(N5CC6(CCN6)C5)nc4c3F)cccc2s1 [Example 102, 4-[6-chloro-2-(1,6-diazaspiro[3.3]heptan-6-yl)-8-fluoro-4-piperazin-1-yl-quinazolin-7-yl]-1,3-benzothiazol-2-amine] | – | 1550 | –
Nc1nc2c(-c3c(Cl)cc4c(N5CCNCC5)nc(N5CC(N6C[C@H]7COC[C@@H](C6)N7)C5)nc4c3F)cccc2s1 [Example 87, 4-(2-(3-((1R,5S)-3-oxa-7,9-diazabicyclo[3.3.1]nonan-7-yl)azetidin-1-yl)-6-chloro-8-fluoro-4-(piperazin-1-yl)quinazolin-7-yl)benzo[d]thiazol-2-amine] | – | 701 | –
CN1CCCC2C1CCN2c1nc(N2CCNCC2)c2cc(Cl)c(-c3cccc4sc(N)nc34)c(F)c2n1 (stereo not shown) [Example 99, 4-(6-chloro-8-fluoro-2-(4-methyloctahydro-1H-pyrrolo[3,2-b]pyridin-1-yl)-4-(piperazin-1-yl)quinazolin-7-yl)benzo[d]thiazol-2-amine] | – | 1400 | –
CNC1(C)CN(c2nc(N3CCNCC3)c3cc(Cl)c(-c4cccc5sc(N)nc45)c(F)c3n2)C1 [Example 77, 4-[6-chloro-8-fluoro-2-[3-methyl-3-(methylamino)azetidin-1-yl]-4-piperazin-1-yl-quinazolin-7-yl]-1,3-benzothiazol-2-amine] | – | 201 | –
Nc1nc2c(-c3c(Cl)cc4c(N5CCNCC5)nc(N5CC(N6CCCC(O)C6)C5)nc4c3F)cccc2s1 (stereo not shown) [Example 92, 1-[1-[7-(2-amino-1,3-benzothiazol-4-yl)-6-chloro-8-fluoro-4-piperazin-1-yl-quinazolin-2-yl]azetidin-3-yl]piperidin-3-ol] | – | 1020 | –
Nc1nc2c(-c3c(Cl)cc4c(N5CCNCC5)nc(N[C@H]5CCc6ncsc6C5)nc4c3F)cccc2s1 [Example 110, 4-[6-chloro-8-fluoro-4-piperazin-1-yl-2-[[(6S)-4,5,6,7-tetrahydro-1,3-benzothiazol-6-yl]amino]quinazolin-7-yl]-1,3-benzothiazol-2-amine] | – | 2180 | –
